Numbers after ± are expanded uncertainties.
Experiment: activity coefficient (dimensionless); of the first substance listed, at infinite dilution; xn = mol fraction of the nth substance listed
Conditions: 101 kPa, Liquid, Chromatography, x1 = 0

| Compound | activity coefficient (318.15 K) | activity coefficient (328.15 K) | activity coefficient (338.15 K) | activity coefficient (348.15 K) | activity coefficient (358.15 K) | activity coefficient (308.15 K) |
| --- | --- | --- | --- | --- | --- | --- |
| c1ccsc1 [thiophene] + CCCC[n+]1cccc(C)c1.O=S(=O)([O-])C(F)(F)F | 0.898 ± 0.057 | 0.919 ± 0.058 | 0.937 ± 0.059 | 0.955 ± 0.06 | 0.972 ± 0.061 |  |
| CO [methanol] + CCCC[n+]1cccc(C)c1.O=S(=O)([O-])C(F)(F)F | 0.642 ± 0.044 | 0.617 ± 0.043 | 0.592 ± 0.042 | 0.57 ± 0.041 | 0.551 ± 0.04 |  |
| CCCCC [pentane] + CCCC[n+]1cccc(C)c1.O=S(=O)([O-])C(F)(F)F | 17.3 ± 1.2 | 16.4 ± 1.1 | 15.5 ± 1.1 | 14.8 ± 1 | 14.1 ± 1 | 18.5 ± 1.3 |
| COC(C)(C)C [2-methoxy-2-methylpropane] + CCCC[n+]1cccc(C)c1.O=S(=O)([O-])C(F)(F)F | 4.22 ± 0.29 | 4.23 ± 0.29 | 4.23 ± 0.29 | 4.24 ± 0.29 | 4.24 ± 0.29 | 4.21 ± 0.29 |
| C=CCCC [1-pentene] + CCCC[n+]1cccc(C)c1.O=S(=O)([O-])C(F)(F)F | 8.44 ± 0.58 | 8.23 ± 0.56 | 8.03 ± 0.55 | 7.88 ± 0.54 | 7.73 ± 0.53 | 8.67 ± 0.59 |
| CC(C)=O [acetone] + CCCC[n+]1cccc(C)c1.O=S(=O)([O-])C(F)(F)F | 0.752 ± 0.049 | 0.762 ± 0.05 | 0.77 ± 0.05 | 0.776 ± 0.051 | 0.783 ± 0.051 | 0.743 ± 0.049 |
| CCCO [propan-1-ol] + CCCC[n+]1cccc(C)c1.O=S(=O)([O-])C(F)(F)F | 1.11 ± 0.07 | 1.06 ± 0.07 | 1 ± 0.06 | 0.958 ± 0.06 | 0.919 ± 0.058 |  |
| CCCCCCC [heptane] + CCCC[n+]1cccc(C)c1.O=S(=O)([O-])C(F)(F)F | 32.7 ± 2.2 | 30.8 ± 2.1 | 29 ± 2 | 27.5 ± 1.9 | 26.1 ± 1.8 | 35.1 ± 2.4 |
| CCCCCCCCC [nonane] + CCCC[n+]1cccc(C)c1.O=S(=O)([O-])C(F)(F)F | 65.9 ± 4.5 | 61.1 ± 4.2 | 56.8 ± 3.9 | 53.2 ± 3.6 | 49.9 ± 3.4 | 71.7 ± 4.9 |
| O [water] + CCCC[n+]1cccc(C)c1.O=S(=O)([O-])C(F)(F)F | 0.89 ± 0.057 | 0.857 ± 0.055 | 0.82 ± 0.053 | 0.789 ± 0.051 | 0.765 ± 0.05 |  |
| C=CCCCCCC [oct-1-ene] + CCCC[n+]1cccc(C)c1.O=S(=O)([O-])C(F)(F)F | 23.2 ± 1.6 | 22.3 ± 1.5 | 21.5 ± 1.5 | 20.8 ± 1.4 | 20 ± 1.4 | 24.3 ± 1.7 |
| c1ccccc1 [benzene] + CCCC[n+]1cccc(C)c1.O=S(=O)([O-])C(F)(F)F | 1.23 ± 0.08 | 1.25 ± 0.08 | 1.27 ± 0.08 | 1.29 ± 0.08 | 1.31 ± 0.09 | 1.2 ± 0.08 |
| CCOCC [diethyl ether] + CCCC[n+]1cccc(C)c1.O=S(=O)([O-])C(F)(F)F | 4.24 ± 0.29 | 4.18 ± 0.28 | 4.14 ± 0.28 | 4.1 ± 0.28 | 4.07 ± 0.28 | 4.29 ± 0.29 |
| C=CCCCCC [1-heptene] + CCCC[n+]1cccc(C)c1.O=S(=O)([O-])C(F)(F)F | 16.4 ± 1.1 | 15.9 ± 1.1 | 15.4 ± 1.1 | 15 ± 1 | 14.5 ± 1 | 17.1 ± 1.2 |
| CCCCCC [hexane] + CCCC[n+]1cccc(C)c1.O=S(=O)([O-])C(F)(F)F | 23.2 ± 1.6 | 22.1 ± 1.5 | 20.9 ± 1.4 | 20 ± 1.4 | 19.1 ± 1.3 | 24.7 ± 1.7 |
| CCCCCCCC [octane] + CCCC[n+]1cccc(C)c1.O=S(=O)([O-])C(F)(F)F | 46.3 ± 3.2 | 43.4 ± 3 | 40.7 ± 2.8 | 38.5 ± 2.6 | 36.2 ± 2.5 | 49.6 ± 3.4 |
| CCCCO [butan-1-ol] + CCCC[n+]1cccc(C)c1.O=S(=O)([O-])C(F)(F)F | 1.42 ± 0.09 | 1.34 ± 0.09 | 1.26 ± 0.08 | 1.2 ± 0.08 | 1.15 ± 0.07 |  |
| CCc1ccccc1 [ethylbenzene] + CCCC[n+]1cccc(C)c1.O=S(=O)([O-])C(F)(F)F | 2.76 ± 0.19 | 2.78 ± 0.19 | 2.8 ± 0.19 | 2.81 ± 0.19 | 2.83 ± 0.19 |  |

| Compound | activity coefficient (318.15 K) | activity coefficient (328.15 K) | activity coefficient (338.15 K) | activity coefficient (348.15 K) | activity coefficient (358.15 K) | activity coefficient (308.15 K) |
| --- | --- | --- | --- | --- | --- | --- |
| CCC(=O)CC [pentan-3-one] + CCCC[n+]1cccc(C)c1.O=S(=O)([O-])C(F)(F)F | 1.39 ± 0.09 | 1.42 ± 0.09 | 1.44 ± 0.09 | 1.46 ± 0.1 | 1.48 ± 0.1 |  |
| C1CCCCCCC1 [cyclooctane] + CCCC[n+]1cccc(C)c1.O=S(=O)([O-])C(F)(F)F | 19.8 ± 1.4 | 18.6 ± 1.3 | 17.5 ± 1.2 | 16.5 ± 1.1 | 15.7 ± 1.1 |  |
| C#CCCCC [1-hexyne] + CCCC[n+]1cccc(C)c1.O=S(=O)([O-])C(F)(F)F | 2.94 ± 0.2 | 3.03 ± 0.21 | 3.11 ± 0.21 | 3.19 ± 0.22 | 3.27 ± 0.22 | 2.86 ± 0.19 |
| CCCCCCCCCC [decane] + CCCC[n+]1cccc(C)c1.O=S(=O)([O-])C(F)(F)F | 94.9 ± 6.5 | 87.6 ± 6 | 80.2 ± 5.5 | 74.6 ± 5.1 | 69.5 ± 4.8 | 104 ± 7.2 |
| Cc1ccccc1 [toluene] + CCCC[n+]1cccc(C)c1.O=S(=O)([O-])C(F)(F)F | 1.76 ± 0.12 | 1.79 ± 0.12 | 1.82 ± 0.12 | 1.85 ± 0.12 | 1.88 ± 0.13 |  |
| Cc1ccc(C)cc1 [1,4-dimethylbenzene] + CCCC[n+]1cccc(C)c1.O=S(=O)([O-])C(F)(F)F | 2.46 ± 0.17 | 2.52 ± 0.17 | 2.57 ± 0.17 | 2.62 ± 0.18 | 2.68 ± 0.18 |  |
| C#CCCCCCC [1-octyne] + CCCC[n+]1cccc(C)c1.O=S(=O)([O-])C(F)(F)F | 5.88 ± 0.4 | 5.97 ± 0.41 | 6.05 ± 0.41 | 6.14 ± 0.42 | 6.23 ± 0.42 |  |
| Cc1cccc(C)c1 [1,3-dimethylbenzene] + CCCC[n+]1cccc(C)c1.O=S(=O)([O-])C(F)(F)F | 2.57 ± 0.17 | 2.62 ± 0.18 | 2.67 ± 0.18 | 2.71 ± 0.18 | 2.76 ± 0.19 |  |
| CCCC(C)=O [pentan-2-one] + CCCC[n+]1cccc(C)c1.O=S(=O)([O-])C(F)(F)F | 1.35 ± 0.09 | 1.36 ± 0.09 | 1.38 ± 0.09 | 1.39 ± 0.09 | 1.41 ± 0.09 |  |
| CCCOCCC [dipropyl ether] + CCCC[n+]1cccc(C)c1.O=S(=O)([O-])C(F)(F)F | 10.1 ± 0.7 | 9.86 ± 0.67 | 9.6 ± 0.65 | 9.35 ± 0.64 | 9.14 ± 0.62 | 10.4 ± 0.7 |
| C1CCCCC1 [cyclohexane] + CCCC[n+]1cccc(C)c1.O=S(=O)([O-])C(F)(F)F | 12.4 ± 0.8 | 11.7 ± 0.8 | 11.1 ± 0.8 | 10.6 ± 0.7 | 10.1 ± 0.7 | 13.2 ± 0.9 |
| C=CCCCC [hex-1-ene] + CCCC[n+]1cccc(C)c1.O=S(=O)([O-])C(F)(F)F | 11.5 ± 0.8 | 11.2 ± 0.8 | 10.9 ± 0.7 | 10.6 ± 0.7 | 10.3 ± 0.7 | 11.9 ± 0.8 |
| C1CCOC1 [tetrahydrofuran] + CCCC[n+]1cccc(C)c1.O=S(=O)([O-])C(F)(F)F | 1.2 ± 0.08 | 1.21 ± 0.08 | 1.23 ± 0.08 | 1.24 ± 0.08 | 1.25 ± 0.08 | 1.19 ± 0.08 |
| C1CCCC1 [cyclopentane] + CCCC[n+]1cccc(C)c1.O=S(=O)([O-])C(F)(F)F | 8.89 ± 0.61 | 8.51 ± 0.58 | 8.15 ± 0.56 | 7.8 ± 0.53 | 7.54 ± 0.51 | 9.4 ± 0.64 |
| Cc1ccccc1C [1,2-dimethylbenzene] + CCCC[n+]1cccc(C)c1.O=S(=O)([O-])C(F)(F)F | 2.16 ± 0.15 | 2.2 ± 0.15 | 2.25 ± 0.15 | 2.29 ± 0.16 | 2.33 ± 0.16 |  |
| C#CCCCCC [1-heptyne] + CCCC[n+]1cccc(C)c1.O=S(=O)([O-])C(F)(F)F | 4.18 ± 0.28 | 4.28 ± 0.29 | 4.37 ± 0.3 | 4.46 ± 0.3 | 4.53 ± 0.31 | 4.09 ± 0.28 |
| C1CCCCCC1 [cycloheptane] + CCCC[n+]1cccc(C)c1.O=S(=O)([O-])C(F)(F)F | 15.4 ± 1.1 | 14.6 ± 1 | 13.8 ± 0.9 | 13.2 ± 0.9 | 12.5 ± 0.9 | 16.4 ± 1.1 |
| CCO [ethanol] + CCCC[n+]1cccc(C)c1.O=S(=O)([O-])C(F)(F)F | 0.907 ± 0.058 | 0.867 ± 0.055 | 0.827 ± 0.053 | 0.79 ± 0.051 | 0.759 ± 0.05 |  |
